# Measured values reported in article PMC6214915, “Design of a novel cell-permeable chimeric peptide to promote wound healing” (Scientific Reports, 2018).
# Assays:
# [1] = cited from earlier work
# From the text: Therefore, it was particularly interesting whether the combination of both, Tylotoin ...
# [2] = tested on: human keratinocytes HaCaT; experiment: MTT cell viability assay on HaCaT keratinocytes; format: cell-based; details: 24 h, 37 °C
# Procedure: Figure 2 Cytotoxic profile of peptides against human keratinocytes HaCaT. Cells were incubated with indicated concentrations of peptides at 37 °C for 24 h. Cell viability of HaCaT cells was determined by MTT assay relative to untreated cells (set to 100%). As positive control, cells were treated with 70% EtOH for 10 min. Experiments were conducted in triplicate with n = 3. Error bars represent standard deviation. (**p < 0.01; ***p < 0.001).
# The toxic effect of the investigated peptides on HaCaT cells was evaluated using the [3(4,5-dimethylthiazol-2yl)2,5-diphenyltetrazolium bromide] (MTT) colorimetric method. MTT is a tetrazolium salt which is reduced to a purple colored formazan product by mitochondrial reductases, present only in metabolically active cells. Keratinocytes were seeded onto a 96-well microtiter plate at a density of 8 × 10^4 cells per well in DMEMg supplemented with 2 mM L-Gln and 2% FBS. After reaching 70–80% confluency, the medium was removed and cells were incubated at 37 °C for 24 h with peptides at different concentrations ranging from 10 to 100 µM (in serum-free medium). After 24 h of incubation, 10 µl of MTT (in PBS, 0.45 mg/ml final) were added to each well. After 4 h incubation, the supernatants were removed and the formazan crystals were dissolved by adding 100 μl of dimethyl sulfoxide (DMSO). For the positive control, cells were treated with 70% EtOH for 10 min. The absorption was measured at 570 nm and at a reference wavelength of 630 nm using Tecan infinite M200 plate reader.
# Micrococcus luteus = format: cell-based, Micrococcus luteus (DSM 20030); details: INT assay, 6 h, 37 °C
# Procedure: HaCaT (immortalized human keratinocytes) and HeLa (human cervix carcinoma) cells were cultured in sterile 10 cm petri dishes at 37 °C in a humidified atmosphere of 5% CO2. HaCaT cells were maintained in DMEM containing 4,500 mg/l glucose (DMEMg), 2 mM L-Gln and 10% FBS (fetal bovine serum). HeLa cells were grown in RPMI 1640 supplemented with 4 mM L-Gln and 10% FBS. Bacteria used were Micrococcus luteus (DSM 20030) and Salmonella typhimurium (TA 100). Mueller Hinton (MH) broth agar plates were used for maintenance und MH broth medium was used to carry out antimicrobial activity studies.
# Antimicrobial activity of peptide conjugates against gram-positive and gram-negative bacteria was conducted using the p-iodonitrotetrazolium-chloride (INT) violet assay as previously described. INT is a tetrazolium-based reagent which is converted to a pink formazan dye in the presence of metabolically active bacteria.
# In brief, M. luteus and S. typhimurium were cultured in MH broth overnight at 37 °C while mild shaking (180 rpm). Overnight-cultured bacteria were added into fresh medium, grown to an optical density of 0.7 at 600 nm and 10 µl bacterial solution were added in triplicate to wells of a 96-well plate (BD Falcon, USA). […] The viability of bacteria relative to untreated bacteria was determined by measuring the absorption at 540 nm on a Tecan infinite M200 plate reader.
# Salmonella typhimurium = details: INT assay, 6 h, 37 °C
# Procedure: Antimicrobial activity of peptide conjugates against gram-positive and gram-negative bacteria was conducted using the p-iodonitrotetrazolium-chloride (INT) violet assay as previously described[33].
# In brief, M. luteus and S. typhimurium were cultured in MH broth overnight at 37 °C while mild shaking (180 rpm). Overnight-cultured bacteria were added into fresh medium, grown to an optical density of 0.7 at 600 nm and 10 µl bacterial solution were added in triplicate to wells of a 96-well plate (BD Falcon, USA). The peptides used at various concentrations and 180 µl of MH medium were added to each corresponding well and incubated for 6 h at 37 °C. 10 µM chloramphenicol served as positive control and H20 was used as negative control. After incubation time, 10 μl of the freshly prepared INT solution (1 mg/ml in DMSO) were added to each well and incubated for further 30 min at 37 °C. The viability of bacteria relative to untreated bacteria was determined by measuring the absorption at 540 nm on a Tecan infinite M200 plate reader.
# HeLa cells = experiment: Resazurin-based cell viability assay on HeLa cells; set-up: species or system human; details: 24 h, serum-free RPMI, triplicate, n = 3
# Procedure: Figure 9 The efficacy of Tylotoin-sC18* towards cancer cells. Microscopic image of HeLa cells treated for 30 min with CF-labeled Tylotoin-sC18* (10 µM, green) at 37 °C (A). Quantification of the cellular uptake of 10 µM CF-labeled peptides for 30 min at 37 °C by flow cytometry (B). Cell viability of HeLa cells after treatment for 24 h with Tylotoin-sC18*, sC18* and Tylotoin, respectively (C). Cells treated with 70% ethanol served as positive control. Data are normalized to untreated cells (100% cell viability). Experiments were performed in triplicate with n = 3. Error bars represent standard deviation. (*p < 0.05).
# For a resazurin-based cell viability assay, HeLa cells were seeded onto a 96-well plate, grown to 70–80% confluency and incubated with various concentrations of peptides in serum-free RPMI growth medium for 24 h under standard growth conditions. For the positive control, cells were treated with 70% EtOH for 10 min. After washing with serum-free medium, resazurin solution (10% in serum-free media, v/v) was incubated with the cells for 1 h at 37 °C. Subsequently, cell viability was determined relative to untreated cells by measurement of the resorufin product at 595 nm (λex = 550 nm) on a Tecan infinite M200 plate reader.
# [3] = Circular dichroism spectroscopy (secondary structure); format: physicochemical
# Procedure: Figure 1 Structural characteristics of investigated peptides. CD spectra were acquired at a peptide concentration of 20 µM in 10 mM phosphate buffer, pH 7.0 (A) and in the additional presence of 50% TFE (B). The percentage of the α-helix content was calculated from the ellipticity value at 222 nm using the following formula: (% α-helix = ((([Θ222]−3000)⁄(−36000−3000)) × 100)[47] (C). R-values represent the ratio between the molar ellipticity values at 222 and 208 nm[20] and R = 1 defined as hallmark for a perfectly built α-helix[48]. Helical wheel projections of Tylotoin-sC18* and sC18*-Tylotoin predicted by HeliQuest (D). TEXT PRINTED IN THE PICTURE: (C) Tylotoin-sC18: Percentage of the α-helix content: phosphate buffer: 12.1; Percentage of the α-helix content: 50% TFE: 46.3; R-value: 0.85 | (C) sC18-Tylotoin: Percentage of the α-helix content: phosphate buffer: 13.1; Percentage of the α-helix content: 50% TFE: 43.5; R-value: 0.87 | (C) Tylotoin-sC18*: Percentage of the α-helix content: phosphate buffer: 10.7; Percentage of the α-helix content: 50% TFE: 46.3; R-value: 0.77 | (C) sC18*-Tylotoin: Percentage of the α-helix content: phosphate buffer: 6.9; Percentage of the α-helix content: 50% TFE: 40.5; R-value: 0.74 | (C) Tylotoin: Percentage of the α-helix content: phosphate buffer: 15.6; Percentage of the α-helix content: 50% TFE: 25.0; R-value: 0.51
# CD spectra were recorded from 180 nm to 270 nm in 0.5 nm intervals at 20 °C using a JASCO J-715 spectropolarimeter in an N2 atmosphere. The CD spectra were measured using a 1 mm quartz cuvette and the instrument parameters were set as follows: sensitivity, 100 mdeg; scan mode, continuous; scan speed, 50 nm/min; response time, 2 sec and bandwidth, 1.0 nm. Peptides were dissolved in 10 mM potassium phosphate buffer (pH 7.0) containing either 0 or 50% (v/v) trifluoroethanol (TFE) to a final peptide concentration of 20 µM.
# [4] = cited from earlier work; remark: listed apart in the source
# From the text: So far, very few studies have been conducted for the use of CPPs in the application field of human skin wound healing[12]–[14]. Thus, to our knowledge, we report for the first time on the fusion of a well-characterized cell penetrating peptide, namely sC18, to a wound healing promoting peptide sequence Tylotoin. This latter short peptide was recently identified and isolated from the skin of the salamander Tylototriton verrucosus. […] More precisely, Tylotoin ...
substance,measurement,setting,value
"KCVRQNNKRVCK-NH2 [Tylotoin, wound healing promoting peptide from skin of the salamander Tylototriton verrucosus; made as C-terminal amide without disulfide bridge, reference compound]",Antimicrobial activity,[1],did not show any antimicrobial activity
same,Cytotoxic effect on keratinocytes viability,"[2]; 10 to 100 µM, serum-free medium, triplicate, n = 3",no cytotoxic effect at all
same,Proliferation of HaCaT cells,[2],enhance the proliferation
same,Antimicrobial activity against M. luteus,Micrococcus luteus,no antimicrobial activity
same,Antimicrobial activity against S. typhimurium,Salmonella typhimurium,no antimicrobial activities
same,Cell viability of HeLa cells,HeLa cells,remained unharmed
same,Percentage of the α-helix content: phosphate buffer,"[3]; CD, 20 µM peptide, 10 mM phosphate buffer pH 7.0, 20 °C, calculated from ellipticity at 222 nm",15.6%
same,Percentage of the α-helix content: 50% TFE,"[3]; CD, 20 µM peptide, 10 mM phosphate buffer pH 7.0 with 50% TFE, 20 °C, calculated from ellipticity at 222 nm",25.0%
same,R-value,"[3]; ratio between molar ellipticity values at 222 and 208 nm, in the presence of 50% TFE, R = 1 perfect α-helix",0.51
same,Wound healing in a murine model,[4],promote wound healing similar to hEGF
